Data from US6355289B1, “Method for preserving tortillas made from corn or wheat” (Kemin Industries, Inc., priority 1996, dated 2002).

What was measured:
[1] = food pH 5.4; cited from earlier work
[2] = system: bacteria, mold, and yeast; test: Carbon dioxide production of tortillas from treated dough; conditions: antimicrobial added to propionic/phosphoric acid preparation
Source text: In the laboratory, shelf life of varying formulations of tortillas can be compared by monitoring the output of carbon dioxide produced by the bacteria, mold, and yeast.
Tortillas were then manufactured from the treated dough.

Compound | acid undissociated [1] | effectiveness in controlling fermented odor / preventing spoilage [2]
CCC(=O)O [propionic acid] | 20% | –
O=C(O)c1ccccc1 [benzoic acid] | 7.75% | best qualities for preventing spoilage
